Test results as given in US8999956B2, “N-[(het)arylalkyl)] pyrazole(thio)carboxamides and their heterosubstituted analogues” (Bayer Intellectual Property GmbH, priority 2010, dated 2015).
Like-named read-outs stand apart in the source and are kept apart here.

What was measured:
Alternaria solani = assay: In vivo preventive test on Alternaria solani (tomato); conditions: 500 ppm of active ingredient, evaluated 7 days after inoculation
Outline: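 Young tomato plants sprayed preventively with compound in DMF/alkylarylpolyglycolether emulsion diluted in water to the stated rate. Inoculation with aqueous Alternaria solani spore suspension one day after treatment.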

Pyrenophora teres = assay: In vivo preventive test on Pyrenophora teres (barley); conditions: 500 ppm of active ingredient, evaluated 7-9 days after inoculation
Outline: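 Compound formulated in N,N-dimethylformamide with alkylaryl polyglycol ether emulsifier and diluted in water, then sprayed on young barley plants at the stated application rate. Plants inoculated one day later with aqueous Pyrenophora teres spore suspension, testing preventive protection.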

Leptosphaeria nodorum = assay: In vivo preventive test on Leptosphaeria nodorum (wheat); conditions: 500 ppm of active ingredient, evaluated 7-9 days after inoculation
Experimental: Solvent: 49 parts by weight of N,N-dimethylacetamide Emulsifier: 1 part by weight of alkylaryl polyglycol ether To produce a suitable preparation of active compound, 1 part by weight of active compound is mixed with the stated amounts of solvent and emulsifier, and the concentrate is diluted with water to the desired concentration. To test for preventive activity, young plants are sprayed with a preparation of active compound at the stated rate of application. One day after this treatment, the plants are inoculated with an aqueous spore suspension of Leptosphaeria nodorum.

Puccinia triticina = assay: In vivo preventive test on Puccinia triticina (wheat); conditions: Table K, 500 ppm of active ingredient, evaluated 8 days after inoculation
[1] = log P by HPLC on reversed-phase column (EEC Directive 79/831 Annex V.A8); type: physicochemical
Experimental: In table 1, the log P values were determined in accordance with EEC Directive 79/831 Annex V.A8 by HPLC (High Performance Liquid Chromatography) on a reversed-phase column (C18), using the method described below: Temperature: 40° C.; […]

Sphaerotheca fuliginea = assay: In vivo preventive test on Sphaerotheca fuliginea (cucumber); conditions: 500 ppm of active ingredient, evaluated 7 days after inoculation
Experimental: Solvent: 49 parts by weight of N,N-dimethylformamide Emulsifier: 1 part by weight of Alkylarylpolyglycolether To produce a suitable preparation of active compound, 1 part by weight of active compound is mixed with the stated amounts of solvent and emulsifier, and the concentrate is diluted with water to the desired concentration. To test for preventive activity, young plants are sprayed with the preparation of active compound at the stated rate of application. One day after this treatment, the plants are inoculated with an aqueous spore suspension of Sphaerotheca fuliginea. Then the plants are placed in a greenhouse at approximately 23° C. and a relative atmospheric humidity of approximately 70%.

[2] = test system: aflatoxines produced by Aspergillus parasiticus; assay: microbe, parasite or virus in culture; type: cell-based
Aspergillus parasiticus = assay: microbe, parasite or virus in culture; type: cell-based

## CC(CCc1ccc(Cl)c(Cl)c1)N(C(=O)c1c(C(F)F)nn(C)c1Cl)C1CC1 (racemic) [Example 130]
Alternaria solani
  Efficacy: 95%
Pyrenophora teres
  Efficacy: 95%
Leptosphaeria nodorum
  Efficacy: 90%
Puccinia triticina
  Efficacy: 70%
[1]
  logP: 4.62

## CC(CCc1ccc(Cl)c(Cl)c1)NC(=O)c1c(C(F)F)nn(C)c1Cl (racemic) [Example 131]
Alternaria solani
  Efficacy: 95%
Pyrenophora teres
  Efficacy: 100%
Leptosphaeria nodorum
  Efficacy: 80%
[1]
  logP: 3.85

## CC(C)CC(C)C1CCCC1NC(=O)c1c(C(F)F)nn(C)c1F (single isomer, unassigned) [Example 318]
Sphaerotheca fuliginea
  Efficacy: 93%
Alternaria solani
  Efficacy: 90%
Pyrenophora teres
  Efficacy: 100%
Leptosphaeria nodorum
  Efficacy: 70%
[2]
  % Inhibition of Aflatoxin at 50 μM: 100%
Aspergillus parasiticus; 50 µM
  % Inhibition of fungal growth at 50 μM: 89%
[1]
  logP: 4.27 isomer C

## Cc1nn(C)c(F)c1C(=O)N(C(C)CCc1ccccc1C(F)(F)F)C1CC1 (stereo not drawn) [E-12 from WO-2008/101976, N-cyclopropyl-5-fluoro-1,3-dimethyl-N-{4-[2-(trifluoromethyl)phenyl]butan-2-yl}-1H-pyrazole-4-carboxamide, reference compound]
Leptosphaeria nodorum
  Efficacy: 10%
Leptosphaeria nodorum; listed as example E-12 disclosed in patent application WO-2008/101976
  Efficacy: less than 10%

## Cn1nc(C(F)F)c(C(=O)N(CCOc2ccc(-c3ccccc3)cc2)C2CC2)c1F [Example 29]
Alternaria solani
  Efficacy: 80%
Pyrenophora teres
  Efficacy: 100%
Leptosphaeria nodorum
  Efficacy: 80%
[1]
  logP: 3.90

## Cc1ccnc(OCC(C)NC(=O)c2c(C(F)F)nn(C)c2Cl)c1 (stereo not drawn) [Example 37]
Alternaria solani
  Efficacy: 80%
Pyrenophora teres
  Efficacy: 100%
Leptosphaeria nodorum
  Efficacy: 90%
[1]
  logP: 2.13

## Cc1cccc(C)c1CCC(C)NC(=O)c1c(C(F)F)nn(C)c1Cl (stereo not drawn) [Example 153]
Sphaerotheca fuliginea
  Efficacy: 100%
Pyrenophora teres
  Efficacy: 100%
Puccinia triticina
  Efficacy: 95%
[2]
  % Inhibition of Aflatoxin at 50 μM: 100%
Aspergillus parasiticus
  % Inhibition of fungal growth at 50 μM: 99%
[1]
  logP: 3.61

## Cc1cccc(C)c1CCC(C)NC(=O)c1c(C(F)F)nn(C)c1F (stereo not drawn) [Example 154]
Sphaerotheca fuliginea
  Efficacy: 100%
Alternaria solani
  Efficacy: 100%
Pyrenophora teres
  Efficacy: 100%
Puccinia triticina
  Efficacy: 70%
[2]
  % Inhibition of Aflatoxin at 50 μM: 100%
Aspergillus parasiticus
  % Inhibition of fungal growth at 50 μM: 100%
[1]
  logP: 3.41

## CC(CNC(=O)c1c(C(F)F)nn(C)c1F)Cc1c(F)cccc1F (stereo not drawn) [Example 157]
Alternaria solani
  Efficacy: 80%
Pyrenophora teres
  Efficacy: 100%
Leptosphaeria nodorum
  Efficacy: 80%
[1]
  logP: 3.02

## CC(CCc1c(Cl)cccc1Cl)NC(=O)c1c(C(F)F)nn(C)c1F (stereo not drawn) [Example 163]
Sphaerotheca fuliginea
  Efficacy: 100%
Alternaria solani
  Efficacy: 100%
Pyrenophora teres
  Efficacy: 100%
Puccinia triticina
  Efficacy: 80%
[2]
  % Inhibition of Aflatoxin at 50 μM: 100%
Aspergillus parasiticus
  % Inhibition of fungal growth at 50 μM: 100%
[1]
  logP: 3.59

## CN(CCCc1cc(Cl)ccc1Cl)C(=S)c1c(C(F)F)nn(C)c1F [Example 168]
Alternaria solani
  Efficacy: 90%
Pyrenophora teres
  Efficacy: 100%
Leptosphaeria nodorum
  Efficacy: 90%
[1]
  logP: 4.11

## Cn1nc(C(F)F)c(C(=O)NC(C)(C)CCc2ccc(Cl)cc2Cl)c1F [Example 196]
Sphaerotheca fuliginea
  Efficacy: 75%
Alternaria solani
  Efficacy: 95%
Pyrenophora teres
  Efficacy: 100%
[2]
  % Inhibition of Aflatoxin at 50 μM: 100%
Aspergillus parasiticus
  % Inhibition of fungal growth at 50 μM: 91%
[1]
  logP: 4.39

## CC(CCc1c(Cl)cc(Cl)cc1Cl)N(C(=S)c1c(C(F)F)nn(C)c1F)C1CC1 (stereo not drawn) [Example 219]
Sphaerotheca fuliginea
  Efficacy: 100%
Alternaria solani
  Efficacy: 95%
Pyrenophora teres
  Efficacy: 100%
Leptosphaeria nodorum
  Efficacy: 90%
[2]
  % Inhibition of Aflatoxin at 50 μM: 81%
Aspergillus parasiticus
  % Inhibition of fungal growth at 50 μM: 71%
[1]
  logP: 5.81

## Cn1nc(C(F)F)c(C(=O)NC2CCCCC2Oc2ccccc2)c1F (stereo not drawn) [Example 245]
Alternaria solani
  Efficacy: 90%
Pyrenophora teres
  Efficacy: 78%
Leptosphaeria nodorum
  Efficacy: 90%
Puccinia triticina
  Efficacy: 70%
[1]
  logP: 3.52

## Cn1nc(C(F)F)c(C(=O)N(C2CC2)C2CCCCC2Oc2ccccc2)c1F (stereo not drawn) [Example 247]
Sphaerotheca fuliginea
  Efficacy: 100%
Pyrenophora teres
  Efficacy: 100%
Leptosphaeria nodorum
  Efficacy: 95%
Puccinia triticina
  Efficacy: 100%
[2]; 50 µM
  % Inhibition of Aflatoxin at 50 μM: 93%
Aspergillus parasiticus; 50 µM
  % Inhibition of fungal growth at 50 μM: 78%
[1]
  logP: 4.21

## Cn1nc(C(F)F)c(C(=O)N(C[Si](C)(C)Cc2ccccc2)C2CC2)c1Cl [Example 287]
Alternaria solani
  Efficacy: 95%
Pyrenophora teres
  Efficacy: 100%
Leptosphaeria nodorum
  Efficacy: 95%
[1]
  logP: 4.20

## Cn1nc(C(F)F)c(C(=O)N(C[Si](C)(C)Cc2cccc(Cl)c2)C2CC2)c1Cl [Example 290]
Alternaria solani
  Efficacy: 95%
Pyrenophora teres
  Efficacy: 100%
Leptosphaeria nodorum
  Efficacy: 80%
[2]
  % Inhibition of Aflatoxin at 50 μM: 82%
Aspergillus parasiticus
  % Inhibition of fungal growth at 50 μM: 72%
[1]
  logP: 4.59

## Cn1nc(C(F)F)c(C(=O)N(C[Si](C)(C)Cc2cc(Cl)cc(Cl)c2)C2CC2)c1F [Example 293]
Leptosphaeria nodorum
  Efficacy: 94%
[2]
  % Inhibition of Aflatoxin at 50 μM: 100%
Aspergillus parasiticus
  % Inhibition of fungal growth at 50 μM: 100%
[1]
  logP: 4.98

## Cn1nc(C(F)F)c(C(=O)N(C[Si](C)(C)Cc2ccccc2Cl)C2CC2)c1Cl [Example 294]
Alternaria solani
  Efficacy: 95%
Pyrenophora teres
  Efficacy: 95%
Leptosphaeria nodorum
  Efficacy: 70%
[2]
  % Inhibition of Aflatoxin at 50 μM: 100%
Aspergillus parasiticus
  % Inhibition of fungal growth at 50 μM: 84%
[1]
  logP: 4.56

## Cn1nc(C(F)F)c(C(=O)N(C[Si](C)(C)Cc2ccccc2Cl)C2CC2)c1F [Example 295]
Alternaria solani
  Efficacy: 100%
Pyrenophora teres
  Efficacy: 100%
Leptosphaeria nodorum
  Efficacy: 100%
[2]
  % Inhibition of Aflatoxin at 50 μM: 100%
Aspergillus parasiticus
  % Inhibition of fungal growth at 50 μM: 100%
[1]
  logP: 4.41

## Cn1nc(C(F)F)c(C(=S)N(C[Si](C)(C)Cc2ccccc2Cl)C2CC2)c1F [Example 296]
Sphaerotheca fuliginea
  Efficacy: 70%
Alternaria solani
  Efficacy: 80%
Pyrenophora teres
  Efficacy: 100%
Leptosphaeria nodorum
  Efficacy: 95%
[1]
  logP: 5.00

## Cn1nc(C(F)F)c(C(=O)N(C[Si](C)(C)Cc2ccc(Cl)cc2Cl)C2CC2)c1F [Example 298]
Sphaerotheca fuliginea
  Efficacy: 85%
Alternaria solani
  Efficacy: 100%
Pyrenophora teres
  Efficacy: 100%
Leptosphaeria nodorum
  Efficacy: 95%
[2]
  % Inhibition of Aflatoxin at 50 μM: 100%
Aspergillus parasiticus
  % Inhibition of fungal growth at 50 μM: 100%
[1]
  logP: 5.03

## Cn1nc(C(F)F)c(C(=S)N(C[Si](C)(C)Cc2ccc(Cl)cc2Cl)C2CC2)c1F [Example 299]
Alternaria solani
  Efficacy: 95%
Pyrenophora teres
  Efficacy: 100%
Leptosphaeria nodorum
  Efficacy: 95%
[1]
  logP: 5.57

## CC(C)CCC1CCCC1NC(=O)c1c(C(F)F)nn(C)c1Cl (stereo not drawn) [Example 309]
Sphaerotheca fuliginea
  Efficacy: 98%
Alternaria solani
  Efficacy: 100%
Pyrenophora teres
  Efficacy: 100%
[2]
  % Inhibition of Aflatoxin at 50 μM: 100%
Aspergillus parasiticus
  % Inhibition of fungal growth at 50 μM: 82%
[1]
  logP: 4.20

## CC1CC(N(C(=O)c2c(C(F)F)nn(C)c2F)C2CC2)CC(C)(C)C1 (stereo not drawn) [Example 322]
Sphaerotheca fuliginea
  Efficacy: 90%
Alternaria solani
  Efficacy: 90%
Pyrenophora teres
  Efficacy: 100%
Leptosphaeria nodorum
  Efficacy: 90%
Puccinia triticina
  Efficacy: 95%
[2]
  % Inhibition of Aflatoxin at 50 μM: 100%
Aspergillus parasiticus
  % Inhibition of fungal growth at 50 μM: 99%
[1]
  logP: 4.31

## CC(CC1CCCCC1NC(=O)c1c(C(F)F)nn(C)c1Cl)C1CC1 (stereo not drawn) [Example 328]
Sphaerotheca fuliginea
  Efficacy: 100%
Alternaria solani
  Efficacy: 95%
Pyrenophora teres
  Efficacy: 95%
Leptosphaeria nodorum
  Efficacy: 80%
[2]
  % Inhibition of Aflatoxin at 50 μM: 100%
Aspergillus parasiticus
  % Inhibition of fungal growth at 50 μM: 91%
[1]
  logP: 4.28

## CC(C)CC1CCCCC1NC(=O)c1c(C(F)F)nn(C)c1F (stereo not drawn) [Example 340]
Sphaerotheca fuliginea
  Efficacy: 90%
Alternaria solani
  Efficacy: 100%
Pyrenophora teres
  Efficacy: 100%
[2]
  % Inhibition of Aflatoxin at 50 μM: 100%
Aspergillus parasiticus
  % Inhibition of fungal growth at 50 μM: 95%
[1]
  logP: 3.94

## Cn1nc(C(F)F)c(C(=O)N(C2CC2)C2CCCCC2C(C)(C)C)c1F (stereo not drawn) [Example 350]
Sphaerotheca fuliginea
  Efficacy: 100%
Alternaria solani
  Efficacy: 90%
Pyrenophora teres
  Efficacy: 100%
[2]
  % Inhibition of Aflatoxin at 50 μM: 100%
Aspergillus parasiticus
  % Inhibition of fungal growth at 50 μM: 100%
[1]
  logP: 4.71

## CCC1(CNC(=O)c2c(C(F)F)nn(C)c2Cl)CCCCC1 [Example 365]
Leptosphaeria nodorum
  Efficacy: 90%
[1]
  logP: 3.78

## CC1CCCC(C)(C)C1CCC(C)N(C(=O)c1c(C(F)F)nn(C)c1F)C1CC1 (stereo not drawn) [Example 367]
Sphaerotheca fuliginea
  Efficacy: 100%
Alternaria solani
  Efficacy: 90%
Pyrenophora teres
  Efficacy: 100%
[2]
  % Inhibition of Aflatoxin at 50 μM: 100%
Aspergillus parasiticus
  % Inhibition of fungal growth at 50 μM: 100%
[1]
  logP: 5.81

## CC1CCCC(C)(C)C1CCC(C)N(C(=O)c1c(C(F)F)nn(C)c1Cl)C1CC1 (stereo not drawn) [Example 368]
Sphaerotheca fuliginea
  Efficacy: 93%
Alternaria solani
  Efficacy: 80%
Pyrenophora teres
  Efficacy: 95%
[2]
  % Inhibition of Aflatoxin at 50 μM: 100%
Aspergillus parasiticus
  % Inhibition of fungal growth at 50 μM: 93%
[1]
  logP: 6.07
